Test results reported in ChEMBL document CHEMBL1833893, “Synthesis and anticonvulsant activity of new 1-[2-oxo-2-(4-phenylpiperazin-1-yl)ethyl]pyrrolidine-2,5-diones” (Bioorg Med Chem Lett, 2011).
Activity calls are given as the source filed them. No cut-off for these calls is given here.

Assays:
Mus musculus [1] = test: Neurotoxicity in albino CF1 mouse assessed as motor impairment at 300 mg/kg, ip after 0.5 hrs by rotarod test; assay type: toxicity, organism-based; design: dose 300 mg/kg, route intraperitoneal; details: in vivo
Mus musculus [2] = test: Anticonvulsant activity in ip dosed albino CF1 mouse assessed as protection against maximal electroshock-induced seizures after 0.5 hrs; assay type: functional; details: read-out: MED
Mus musculus [3] = test: Anticonvulsant activity in albino CF1 mouse assessed as protection against electrically-induced seizure at 100 mg/kg, ip after 1 hr by 6Hz psychomotor seizure test; assay type: functional
Mus musculus [4] = test: Neurotoxicity in albino CF1 mouse assessed as motor impairment at 300 mg/kg, ip after 4 hrs by rotarod test; assay type: toxicity, organism-based; design: dose 300 mg/kg, route intraperitoneal; details: in vivo
Mus musculus [5] = test: Anticonvulsant activity in albino CF1 mouse assessed as protection against electrically-induced seizure at 100 mg/kg, ip after 4 hrs by 6Hz psychomotor seizure test; assay type: functional
Mus musculus [6] = test: Anticonvulsant activity in ip dosed albino CF1 mouse assessed as protection against maximal electroshock-induced seizures after 4 hrs; assay type: functional; details: read-out: MED
Mus musculus [7] = test: Anticonvulsant activity in albino CF1 mouse assessed as protection against electrically-induced seizure at 100 mg/kg, ip after 0.5 hrs by 6Hz psychomotor seizure test; assay type: functional
Mus musculus [8] = test: Anticonvulsant activity in albino CF1 mouse assessed as protection against subcutaneous pentylenetetrazole-induced seizures at 300 mg/kg, ip after 4 hrs; assay type: functional, organism-based; design: dose 300 mg/kg
Mus musculus [9] = test: Anticonvulsant activity in albino CF1 mouse assessed as protection against subcutaneous pentylenetetrazole-induced seizures at 300 mg/kg, ip after 0.5 hrs; assay type: functional, organism-based; design: dose 300 mg/kg
Mus musculus [10] = test: Anticonvulsant activity in albino CF1 mouse assessed as protection against maximal electroshock-induced seizures at 300 mg/kg, ip after 4 hrs; assay type: functional, organism-based; design: dose 300 mg/kg
Mus musculus [11] = test: Neurotoxicity in ip dosed albino CF1 mouse assessed as minimum dose required to cause motor impairment after 0.5 hrs by rotarod test; assay type: toxicity, organism-based; details: in vivo
Mus musculus [12] = test: Anticonvulsant activity in ip dosed albino CF1 mouse assessed as protection against subcutaneous pentylenetetrazole-induced seizures after 0.5 hrs; assay type: functional; details: albino CF1, 0.5 h, read-out: MED
Rattus norvegicus [13] = test: Anticonvulsant activity in Sprague-Dawley rat assessed as protection against maximal electroshock-induced seizures at 30 mg/kg, po after 2 hrs; assay type: functional
Rattus norvegicus [14] = test: Anticonvulsant activity in Sprague-Dawley rat assessed as protection against maximal electroshock-induced seizures at 30 mg/kg, po after 1 hr; assay type: functional
Rattus norvegicus [15] = test: Anticonvulsant activity in Sprague-Dawley rat assessed as protection against maximal electroshock-induced seizures at 30 mg/kg, po after 0.5 hrs; assay type: functional
Rattus norvegicus [16] = test: Anticonvulsant activity in Sprague-Dawley rat assessed as protection against maximal electroshock-induced seizures at 30 mg/kg, po after 4 hrs; assay type: functional
Mus musculus [17] = test: Anticonvulsant activity in albino CF1 mouse assessed as protection against electrically-induced seizure at 100 mg/kg, ip after 0.25 hrs by 6Hz psychomotor seizure test; assay type: functional
Rattus norvegicus [18] = test: Anticonvulsant activity in Sprague-Dawley rat assessed as protection against maximal electroshock-induced seizures at 30 mg/kg, po after 0.25 hrs; assay type: functional
Mus musculus [19] = test: Anticonvulsant activity in ip dosed albino CF1 mouse assessed as protection against subcutaneous pentylenetetrazole-induced seizures after 4 hrs; assay type: functional; details: albino CF1, 4 h, read-out: MED
Mus musculus [20] = test: Anticonvulsant activity in albino CF1 mouse assessed as protection against maximal electroshock-induced seizures at 300 mg/kg, ip after 0.5 hrs; assay type: functional, organism-based; design: dose 300 mg/kg
Mus musculus [21] = test: Neurotoxicity in ip dosed albino CF1 mouse assessed as minimum dose required to cause motor impairment after 4 hrs by rotarod test; assay type: toxicity, organism-based; details: in vivo
Mus musculus [22] = test: Anticonvulsant activity in albino CF1 mouse assessed as protection against electrically-induced seizure at 100 mg/kg, ip after 2 hrs by 6Hz psychomotor seizure test; assay type: functional

Structure (SMILES) | Activity (Mus musculus [1]) | minimal effective dose (Mus musculus [2]) | Activity (Mus musculus [3]; route intraperitoneal) | Activity (Mus musculus [4]) | minimal effective dose (Mus musculus [6]) | Activity (Mus musculus [7]; route intraperitoneal) | Activity (Mus musculus [8]) | Activity (Mus musculus [9]) | Activity (Mus musculus [10]) | MTC (Mus musculus [11]) | minimal effective dose (Mus musculus [12]) | Activity (Rattus norvegicus [13]) | Activity (Rattus norvegicus [14]) | Activity (Rattus norvegicus [15]) | Activity (Rattus norvegicus [16]) | Activity (Mus musculus [17]; route intraperitoneal) | Activity (Rattus norvegicus [18]) | other results
CC1CC(=O)N(CC(=O)N2CCN(c3ccc(F)cc3)CC2)C1=O (stereo not drawn) | Non-toxic | 300 mg/kg | 75% | Non-toxic | 100 mg/kg | 75% | inactive | inactive | – | – | – | – | – | – | – | – | – | Activity (Mus musculus [5]): inactive
CCC1(CC)CC(=O)N(CC(=O)N2CCN(c3ccccc3Cl)CC2)C1=O | – | 300 mg/kg | – | Non-toxic | – | – | inactive | inactive | inactive | 300 mg/kg | – | – | – | – | – | – | – | –
O=C(CN1C(=O)CCC1=O)N1CCN(c2ccccc2)CC1 | Non-toxic | 300 mg/kg | – | Non-toxic | – | – | inactive | inactive | inactive | – | – | – | – | – | – | – | – | –
CC1(C)CC(=O)N(CC(=O)N2CCN(c3ccc(F)cc3)CC2)C1=O | – | 100 mg/kg | 75% | Non-toxic | 100 mg/kg | 100% | inactive | – | – | 300 mg/kg | 300 mg/kg | inactive | inactive | inactive | inactive | 100% | inactive | –
CCC1(C)CC(=O)NC1=O (stereo not drawn) [ETHOSUXIMIDE] | Non-toxic | – | – | Non-toxic | – | – | – | – | inactive | – | 100 mg/kg | – | – | – | – | – | – | minimal effective dose (Mus musculus [19]): 300 mg/kg; Activity (Mus musculus [20]): inactive
O=C(CN1C(=O)CCC1=O)N1CCN(c2ccc(Cl)cc2)CC1 | Non-toxic | 100 mg/kg | – | – | 300 mg/kg | – | inactive | – | – | – | 300 mg/kg | – | inactive | inactive | – | – | inactive | MTC (Mus musculus [21]): 300 mg/kg; Activity (Mus musculus [3]): inactive; Activity (Mus musculus [5]): inactive; Activity (Mus musculus [7]): inactive; Activity (Mus musculus [22]): inactive; Activity (Mus musculus [17]): inactive
CCC1(CC)CC(=O)N(CC(=O)N2CCN(c3cccc(C(F)(F)F)c3)CC2)C1=O | Non-toxic | 300 mg/kg | – | Non-toxic | 300 mg/kg | – | inactive | inactive | – | – | – | – | – | – | – | – | – | –
CC1(C)CC(=O)N(CC(=O)N2CCN(c3ccccc3F)CC2)C1=O | Non-toxic | 300 mg/kg | – | Non-toxic | – | – | inactive | inactive | inactive | – | – | – | – | – | – | – | – | –
CC1CC(=O)N(CC(=O)N2CCN(c3ccccc3F)CC2)C1=O (stereo not drawn) | – | 300 mg/kg | – | Non-toxic | 300 mg/kg | – | inactive | inactive | – | 300 mg/kg | – | – | – | – | – | – | – | –
O=C(CN1C(=O)CCC1=O)N1CCN(c2ccccc2Cl)CC1 | – | 100 mg/kg | – | Non-toxic | – | – | inactive | – | inactive | 300 mg/kg | 300 mg/kg | inactive | inactive | inactive | inactive | 75% | inactive | Activity (Mus musculus [3]): inactive; Activity (Mus musculus [5]): inactive; Activity (Mus musculus [22]): inactive
O=C(CN1C(=O)CCC1=O)N1CCN(c2ccccc2F)CC1 | – | 300 mg/kg | – | Non-toxic | – | – | inactive | – | – | 300 mg/kg | 300 mg/kg | – | – | – | – | – | – | –
CC1CC(=O)N(CC(=O)N2CCN(c3cccc(C(F)(F)F)c3)CC2)C1=O (stereo not drawn) | – | 100 mg/kg | 100% | – | 100 mg/kg | 100% | inactive | – | – | 300 mg/kg | 300 mg/kg | – | – | inactive | – | 100% | inactive | MTC (Mus musculus [21]): 300 mg/kg; Activity (Mus musculus [5]): inactive; Activity (Mus musculus [22]; route intraperitoneal): 75%
CC1(C)CC(=O)N(CC(=O)N2CCN(c3cccc(C(F)(F)F)c3)CC2)C1=O | Non-toxic | 100 mg/kg | 75% | Non-toxic | 100 mg/kg | 75% | inactive | inactive | – | – | – | inactive | inactive | inactive | inactive | – | – | –
CCC1(CC)CC(=O)N(CC(=O)N2CCN(c3ccc(Cl)cc3)CC2)C1=O | Non-toxic | – | – | Non-toxic | 300 mg/kg | – | inactive | inactive | – | – | – | – | – | – | – | – | – | Activity (Mus musculus [20]): inactive
O=C1NC(=O)C(c2ccccc2)(c2ccccc2)N1 [PHENYTOIN] | – | 30 mg/kg | – | – | 30 mg/kg | – | inactive | inactive | – | 100 mg/kg | – | 75% | 75% | 100% | 75% | – | – | MTC (Mus musculus [21]): 100 mg/kg
CC1CC(=O)N(CC(=O)N2CCN(c3ccccc3)CC2)C1=O (stereo not drawn) | – | 300 mg/kg | – | Non-toxic | – | – | – | – | inactive | 300 mg/kg | 300 mg/kg | – | – | – | – | – | – | minimal effective dose (Mus musculus [19]): 300 mg/kg
CC1CC(=O)N(CC(=O)N2CCN(c3ccc(Cl)cc3)CC2)C1=O (stereo not drawn) | Non-toxic | 300 mg/kg | 75% | – | 100 mg/kg | – | inactive | inactive | – | – | – | 75% | 75% | 75% | 75% | 75% | – | MTC (Mus musculus [21]): 300 mg/kg
CC1(C)CC(=O)N(CC(=O)N2CCN(c3ccc(Cl)cc3)CC2)C1=O | – | 100 mg/kg | 100% | Non-toxic | 100 mg/kg | 100% | inactive | – | – | 300 mg/kg | 300 mg/kg | – | inactive | inactive | 100% | 100% | inactive | –
CC1CC(=O)N(CC(=O)N2CCN(c3ccccc3Cl)CC2)C1=O (stereo not drawn) | – | 300 mg/kg | – | Non-toxic | – | 100% | inactive | – | inactive | 300 mg/kg | 300 mg/kg | inactive | inactive | inactive | inactive | 100% | 75% | Activity (Mus musculus [5]): inactive; Activity (Mus musculus [22]): inactive
O=C(CN1C(=O)CCC1=O)N1CCN(c2cccc(C(F)(F)F)c2)CC1 | – | 100 mg/kg | 75% | – | 100 mg/kg | 100% | – | inactive | – | 100 mg/kg | – | 75% | 75% | – | 75% | 100% | inactive | MTC (Mus musculus [21]): 300 mg/kg; minimal effective dose (Mus musculus [19]): 300 mg/kg; Activity (Mus musculus [5]; route intraperitoneal): 75%; Activity (Mus musculus [22]; route intraperitoneal): 100%
CCC1(CC)CC(=O)N(CC(=O)N2CCN(c3ccccc3)CC2)C1=O | Non-toxic | – | – | Non-toxic | – | – | inactive | inactive | inactive | – | – | – | – | – | – | – | – | Activity (Mus musculus [20]): inactive
CC1(C)CC(=O)N(CC(=O)N2CCN(c3ccccc3Cl)CC2)C1=O | Non-toxic | 300 mg/kg | – | Non-toxic | – | – | inactive | inactive | inactive | – | – | – | – | – | – | – | – | –
O=C(CN1C(=O)CCC1=O)N1CCN(c2ccc(F)cc2)CC1 | Non-toxic | 300 mg/kg | – | Non-toxic | 300 mg/kg | – | inactive | inactive | – | – | – | – | – | – | – | – | – | –
